Measurements taken from patent publication US12048686B2, “Compositions and methods for activating NRF2-dependent gene expression” (The University of Chicago, priority 2018, dated 2024).

Experiments:
KEAP1 = target: T1, KEAP1 (Homo sapiens, UniProt Q14145); experiment: MGx dose-response HMW-KEAP1 formation in FLAG-KEAP1 lysates or purified KEAP1; type: biochemical; conditions: FLAG-KEAP1 containing lysates or purified KEAP1, freshly distilled MGx
T1 construct: full-length, human KEAP1 (28023, Addgene) was transiently expressed from a pcDNA/FRT/TO plasmid with a C-terminal 3×FLAG tag; host or cells: HEK293T
T1 sequence (Q14145 whole entry): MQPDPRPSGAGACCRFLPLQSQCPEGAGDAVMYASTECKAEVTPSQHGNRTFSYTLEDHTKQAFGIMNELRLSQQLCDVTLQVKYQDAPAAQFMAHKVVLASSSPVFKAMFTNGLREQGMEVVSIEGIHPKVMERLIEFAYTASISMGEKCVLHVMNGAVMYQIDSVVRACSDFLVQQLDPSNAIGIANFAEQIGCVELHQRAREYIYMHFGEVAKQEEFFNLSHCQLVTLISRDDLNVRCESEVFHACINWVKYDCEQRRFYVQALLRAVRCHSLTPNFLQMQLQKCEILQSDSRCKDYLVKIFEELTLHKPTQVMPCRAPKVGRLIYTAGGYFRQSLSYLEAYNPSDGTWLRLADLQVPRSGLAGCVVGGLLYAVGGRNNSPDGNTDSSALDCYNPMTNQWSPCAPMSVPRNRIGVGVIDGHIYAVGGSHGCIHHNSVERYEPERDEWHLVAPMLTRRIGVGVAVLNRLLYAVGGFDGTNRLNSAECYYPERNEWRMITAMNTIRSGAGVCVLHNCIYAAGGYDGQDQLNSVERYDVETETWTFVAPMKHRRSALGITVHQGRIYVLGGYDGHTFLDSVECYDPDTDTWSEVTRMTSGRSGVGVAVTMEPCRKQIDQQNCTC
Description: Metabolite Treatments and HMW-KEAP1 screening. For in vitro screening of glycolytic metabolites, HEK293T cells expressing FLAG-KEAP1 were lysed by snap-freeze-thaw cycles (3×) in PBS, pH 7.4, containing EDTA-free complete protease inhibitor (Roche). Lysates were cleared by centrifugation and the supernatants normalized for concentration by Bradford reagent (2 mg/mL). Concentrated stocks of each metabolite were made in PBS, which were added to the lysate samples for the final indicated concentrations and incubated at 37° C. for 2.5 hours with shaking. Following incubation, samples were denatured with 6 M urea and processed for SDS-PAGE and western blotting. Methylglyoxal (40% v/v with H2O), glyceraldehyde 3-phosphate (GAP), dihydroxyacetone phosphate (DHAP), and 2,3-bisphosphoglycerate (2,3-BPG) were all obtained from Sigma Aldrich and used as PBS stocks. […] Each mixture was incubated at 37° C. for 8 hours with rotating, HMW-KEAP1 formation was analyzed by SDS-PAGE and western blot.
For studies with recombinant KEAP1, FLAG-KEAP1 was expressed in HEK293T cells from transient transfection of the Flag-Keap1 plasmid (Addgene plasmid #28023). […] 12 μL of this reaction was then separated by SDS-PAGE and the presence of HMW-KEAP1 evaluated by anti-FLAG Western blotting as described or by silver staining using the Pierce Silver Stain Kit (ThermoFisher Scientific).

PGK1 = target: T2, PGK1 (Homo sapiens, UniProt P00558); experiment: Recombinant PGK1 assay (GAPDH/PGK1 coupled assay, NADH absorbance); type: biochemical; conditions: absorbance 340 nm
T2 sequence (P00558 1-417): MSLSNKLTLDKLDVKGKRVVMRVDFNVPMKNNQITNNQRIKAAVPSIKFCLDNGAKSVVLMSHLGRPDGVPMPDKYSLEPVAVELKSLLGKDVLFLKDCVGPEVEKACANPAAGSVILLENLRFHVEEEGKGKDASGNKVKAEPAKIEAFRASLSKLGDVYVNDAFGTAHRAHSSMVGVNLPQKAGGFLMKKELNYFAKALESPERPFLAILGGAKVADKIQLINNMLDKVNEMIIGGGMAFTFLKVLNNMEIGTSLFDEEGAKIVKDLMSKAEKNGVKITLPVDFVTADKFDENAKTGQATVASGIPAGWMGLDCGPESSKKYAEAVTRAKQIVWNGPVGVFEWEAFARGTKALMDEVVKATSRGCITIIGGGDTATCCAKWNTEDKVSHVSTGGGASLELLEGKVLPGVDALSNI
Text: FIG. 6A-D. CBR-470-1 inhibits PGK1 in vitro and in situ. (a) Schematic of the GAPDH/PGK1 coupled assay. Pre-equilibration of the GAPDH reaction (top left) results in an NAD^+/NADH equilibrium, which upon addition of PGK1 and ADP pulls the reaction to the right producing more NADH. Monitoring NADH absorbance after addition of PGK1 (bottom right) can be used to monitor PGK1 activity in the forward direction (right). […] (c, d) Relative level of central metabolites in IMR32 cells treated with viral knockdown of PGK1 for 72 hours (c) (n=4) and with CBR-470-1 relative DMSO alone for the indicative times (d) (n=3). Each metabolite is normalized to the control condition at each time point. Data shown represent mean±SEM of biologically independent samples.
Recombinant PGK1 assay. PGK1 enzymatic activity in the forward direction was measured with a coupled enzymatic assay^34. Three PGK1 conditions were prepared by dissolving recombinant PGK1 in potassium phosphate buffer (10 mM KH2PO4, 10 mM MgSO4, pH 7.0), and transferring the aliquots of PGK1 solution to the microtubes being treated with same amount of DMSO and indicated concentrations of CBR-470-1. Final concentration of PGK1 is 20 ng/mL and DMSO is 1% for each sample. […] The change in absorbance at 340 nm at room temperature was measured every 20 seconds for 45 minutes, by Tecan Infinite M200 plate reader. […]

Compound | formation of HMW-KEAP1 (KEAP1) | PGK1-dependent activity and accumulation of NADH (PGK1)
CC(=O)C=O [MGx, methylglyoxal, reference compound] | dose-dependent formation of HMW-KEAP1 at mid-μM concentrations | 
CC(C)CN[C@H]1CS(=O)(=O)C[C@@H]1S(=O)(=O)c1ccc(Cl)cc1 [CBR-470-1] |  | significantly inhibits PGK1-dependent activity and accumulation of NADH
